Legend:
[1] = test system: KYSE-150 esophageal carcinoma cell line; assay: In vitro cell-based assay: cellular proliferation via BrdU incorporation (ELISA); design: species or system human; conditions: Homo sapiens, KYSE-150, 168 hours compound incubation
In short: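 KYSE-150 cells (JMJD2C-amplified; SMAD4 and TP53 mutant), 2,000/well, were treated after overnight attachment with an 11-point series (100 μM to 2 nM) for 168 h. Proliferation was read by BrdU ELISA (2 h labelling, anti-BrdU-peroxidase, TMB, 450 nm) and IC50 fitted.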

JMJD3 = JMJD3 (Homo sapiens, UniProt O15054); assay: In vitro enzyme inhibition assay for JMJD3 activity (TR-FRET); format: biochemical
Protocol: This assay determines the ability of a test compound to inhibit JMJD3 demethylase activity.
The enzymatic assay of JMJD3 activity is based upon Time Resolved-Fluorescence Resonance Energy Transfer (TR-FRET) detection. […] Reaction product was determined quantitatively by TR-FRET after the addition of detection reagent Phycolink Streptavidin-allophycocyanin (Prozyme) and Europium-anti-di-methylated histone H3 lysine 27 (H3K27me2) antibody (PerkinElmer) in the presence of 5 mM EDTA in LANCE detection buffer (PerkinElmer) at a final concentration of 50 nM and 1 nM, respectively.
The reaction mixture was incubated at room temperature for 30 minutes, and terminated by the addition of 6 μL of 5 mM EDTA in LANCE detection buffer containing 100 nM Phycolink Streptavidin-allophycocyanin and 2 nM Europium-anti-H3K27me2 antibody.

JMJD2C = JMJD2C (Homo sapiens (Human), UniProt Q9H3R0); assay: In vitro enzyme inhibition assay for JMJD2C activity (TR-FRET); format: biochemical
In short: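 Baculovirus JMJD2C (AA 2-372), 0.3 nM, with 300 nM biotin-H3K9me3 peptide and 2 μM α-ketoglutarate in HEPES pH 7.3 containing Fe(II) and ascorbate, 30 min at room temperature, 11-point dilutions. H3K9me2 product by TR-FRET (Eu-antibody/streptavidin-APC, 665/615 ratio); IC50 fitted.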

JMJD2C, sequence (Q9H3R0 2-372): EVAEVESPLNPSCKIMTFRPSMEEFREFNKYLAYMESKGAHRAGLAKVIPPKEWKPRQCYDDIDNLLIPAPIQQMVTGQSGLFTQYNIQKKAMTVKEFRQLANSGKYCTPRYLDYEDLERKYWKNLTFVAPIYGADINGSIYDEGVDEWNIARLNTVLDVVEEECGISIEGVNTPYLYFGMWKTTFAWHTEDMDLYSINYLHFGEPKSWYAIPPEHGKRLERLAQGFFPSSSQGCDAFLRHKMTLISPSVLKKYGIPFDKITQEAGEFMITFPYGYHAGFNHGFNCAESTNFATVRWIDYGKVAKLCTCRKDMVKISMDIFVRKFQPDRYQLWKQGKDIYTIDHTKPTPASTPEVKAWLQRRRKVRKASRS

Compound: Cc1cnc(N(C)c2ccc3c(c2)CCC[C@H]3CNc2cnccc2C(=O)O)nc1 [Example 156, 3-({[(1R)-6-[methyl(5-methylpyrimidin-2-yl)amino]-1,2,3,4-tetrahydronaphthalen-1-yl]methyl}amino)pyridine-4-carboxylic acid]
- IC50 [1]: 0.1 to 1 µM
- IC50 (JMJD3): 1 to 10 µM
- IC50 (JMJD2C): 0.1 to 1 µM

Compound: CCOc1ccc(N(C)c2ccc3c(c2)CCC[C@H]3CNc2cnccc2C(=O)O)cc1 [Example 185, 3-({[(1R)-6-[(4-ethoxyphenyl)(methyl)amino]-1,2,3,4-tetrahydronaphthalen-1-yl]methyl}amino)pyridine-4-carboxylic acid]
- IC50 [1]: ≤ 0.1 µM
- IC50 (JMJD3): 1 to 10 µM
- IC50 (JMJD2C): 0.1 to 1 µM

Compound: O=C(O)c1ccncc1NCC1CCOc2cc(N3CCCc4ccccc43)ccc21 (stereo not shown) [Example 16, 3-({[7-(1,2,3,4-tetrahydroquinolin-1-yl)-3,4-dihydro-2H-1-benzopyran-4-yl]methyl}amino)pyridine-4-carboxylic acid]
- IC50 [1]: 0.1 to 1 µM
- IC50 (JMJD3): 1 to 10 µM
- IC50 (JMJD2C): 0.1 to 1 µM

Compound: CN(c1ccc(-n2ccnc2)cc1)c1ccc2c(c1)OCC[C@H]2CNc1cnccc1C(=O)O [Example 194, 3-({[(4R)-7-{[4-(1H-imidazol-1-yl)phenyl](methyl)amino}-3,4-dihydro-2H-1-benzopyran-4-yl]methyl}amino)pyridine-4-carboxylic acid]
- IC50 [1]: 1 to 10 µM
- IC50 (JMJD3): 1 to 10 µM
- IC50 (JMJD2C): 0.1 to 1 µM

Compound: Cc1ccc(N(C)c2ccc3c(c2)OCC[C@H]3CNc2cnccc2C(=O)O)nc1 [Example 145, 3-({[(4R)-7-[methyl(5-methylpyridin-2-yl)amino]-3,4-dihydro-2H-1-benzopyran-4-yl]methyl}amino)pyridine-4-carboxylic acid]
- IC50 [1]: ≤ 0.1 µM
- IC50 (JMJD3): 1 to 10 µM
- IC50 (JMJD2C): ≤ 0.1 µM

Compound: COCc1ccc(N(C)c2ccc3c(c2)CCC[C@H]3CNc2cnccc2C(=O)O)cc1 [Example 164, 3-({[(1R)-6-{[4-(methoxymethyl)phenyl](methyl)amino}-1,2,3,4-tetrahydronaphthalen-1-yl]methyl}amino)pyridine-4-carboxylic acid]
- IC50 [1]: ≤ 0.1 µM
- IC50 (JMJD3): 1 to 10 µM
- IC50 (JMJD2C): 0.1 to 1 µM

Compound: CN(c1ccc2c(c1)CCC[C@H]2CNc1cnccc1C(=O)O)c1ccccn1 [Example 11, 3-({[(1R)-6-[methyl(pyridin-2-yl)amino]-1,2,3,4-tetrahydronaphthalen-1-yl]methyl}amino)pyridine-4-carboxylic acid]
- IC50 [1]: ≤ 0.1 µM
- IC50 (JMJD3): 1 to 10 µM
- IC50 (JMJD2C): 0.1 to 1 µM

Compound: CCc1ccc(N(C)c2ccc3c(c2)OCC[C@H]3CNc2cnccc2C(=O)O)cc1 [Example 154, 3-({[(4R)-7-[(4-ethylphenyl)(methyl)amino]-3,4-dihydro-2H-1-benzopyran-4-yl]methyl}amino)pyridine-4-carboxylic acid]
- IC50 [1]: ≤ 0.1 µM
- IC50 (JMJD3): 1 to 10 µM
- IC50 (JMJD2C): 0.1 to 1 µM

Compound: Cc1cccc(N(C)c2ccc3c(c2)CCC[C@H]3CNc2cnccc2C(=O)O)n1 [Example 123, 3-({[(1R)-6-[methyl(6-methylpyridin-2-yl)amino]-1,2,3,4-tetrahydronaphthalen-1-yl]methyl}amino)pyridine-4-carboxylic acid]
- IC50 [1]: ≤ 0.1 µM
- IC50 (JMJD3): 1 to 10 µM
- IC50 (JMJD2C): 0.1 to 1 µM

Compound: CN(c1ccc(C2CC2)cc1)c1ccc2c(c1)OCC[C@H]2CNc1cnccc1C(=O)O [Example 134, 3-({[(4R)-7-[(4-cyclopropylphenyl)(methyl)amino]-3,4-dihydro-2H-1-benzopyran-4-yl]methyl}amino)pyridine-4-carboxylic acid]
- IC50 [1]: ≤ 0.1 µM
- IC50 (JMJD3): 1 to 10 µM
- IC50 (JMJD2C): 0.1 to 1 µM

Compound: CN(c1ccc2c(c1)CCC[C@H]2CNc1cnccc1C(=O)O)c1cnn(C)c1 [Example 159, 3-({[(1R)-6-[methyl(1-methyl-1H-pyrazol-4-yl)amino]-1,2,3,4-tetrahydronaphthalen-1-yl]methyl}amino)pyridine-4-carboxylic acid]
- IC50 [1]: 1 to 10 µM
- IC50 (JMJD3): 1 to 10 µM
- IC50 (JMJD2C): 0.1 to 1 µM

Compound: CCc1ccc(N(C)c2ccc3c(c2)OCC[C@H]3CNc2cnccc2C(=O)O)nc1 [Example 157, 3-({[(4R)-7-[(5-ethylpyridin-2-yl)(methyl)amino]-3,4-dihydro-2H-1-benzopyran-4-yl]methyl}amino)pyridine-4-carboxylic acid]
- IC50 [1]: ≤ 0.1 µM
- IC50 (JMJD3): 1 to 10 µM
- IC50 (JMJD2C): 0.1 to 1 µM

Compound: Cc1ccc(Oc2ccc3c(c2)CCC[C@H]3CNc2cnccc2C(=O)O)c(F)c1 [Example 66, 3-({[(1R)-6-(2-fluoro-4-methylphenoxy)-1,2,3,4-tetrahydronaphthalen-1-yl]methyl}amino)pyridine-4-carboxylic acid]
- IC50 [1]: ≤ 0.1 µM
- IC50 (JMJD3): 1 to 10 µM
- IC50 (JMJD2C): 0.1 to 1 µM

Compound: CN(c1cccc(F)c1)c1ccc2c(c1)OCC[C@H]2CNc1cnccc1C(=O)O [Example 20, 3-({[(4R)-7-[(3-fluorophenyl)(methyl)amino]-3,4-dihydro-2H-1-benzopyran-4-yl]methyl}amino)pyridine-4-carboxylic acid]
- IC50 [1]: ≤ 0.1 µM
- IC50 (JMJD3): 1 to 10 µM
- IC50 (JMJD2C): 0.1 to 1 µM

Compound: CN(c1ccc(Cl)cc1)c1ccc2c(c1)OCC[C@H]2CNc1cnccc1C(=O)O [Example 23, 3-({[(4R)-7-[(4-chlorophenyl)(methyl)amino]-3,4-dihydro-2H-1-benzopyran-4-yl]methyl}amino)pyridine-4-carboxylic acid]
- IC50 [1]: ≤ 0.1 µM
- IC50 (JMJD3): 1 to 10 µM
- IC50 (JMJD2C): 0.1 to 1 µM

Compound: CN(c1ccccc1)c1ccc2c(n1)CCCC2CNc1cnccc1C(=O)O (stereo not shown) [Example 26, 3-[({2-[methyl(phenyl)amino]-5,6,7,8-tetrahydroquinolin-5-yl}methyl)amino]pyridine-4-carboxylic acid]
- IC50 [1]: 1 to 10 µM
- IC50 (JMJD3): 1 to 10 µM
- IC50 (JMJD2C): 0.1 to 1 µM

Compound: CCN(c1ccccc1)c1ccc2c(c1)OCC[C@H]2CNc1cnccc1C(=O)O [Example 24, 3-({[(4R)-7-[ethyl(phenyl)amino]-3,4-dihydro-2H-1-benzopyran-4-yl]methyl}amino)pyridine-4-carboxylic acid]
- IC50 [1]: ≤ 0.1 µM
- IC50 (JMJD3): 1 to 10 µM
- IC50 (JMJD2C): 0.1 to 1 µM

Compound: Cc1ccc(N(C)c2ccc3c(c2)OCC[C@H]3CNc2cnccc2C(=O)O)cc1 [Example 22, 3-({[(4R)-7-[methyl(4-methylphenyl)amino]-3,4-dihydro-2H-1-benzopyran-4-yl]methyl}amino)pyridine-4-carboxylic acid]
- IC50 [1]: ≤ 0.1 µM
- IC50 (JMJD3): 1 to 10 µM
- IC50 (JMJD2C): 0.1 to 1 µM

Compound: CN(C)c1ccc(N(C)c2ccc3c(c2)CCC[C@H]3CNc2cnccc2C(=O)O)cc1 [Example 160, 3-({[(1R)-6-{[4-(dimethylamino)phenyl](methyl)amino}-1,2,3,4-tetrahydronaphthalen-1-yl]methyl}amino)pyridine-4-carboxylic acid]
- IC50 [1]: ≤ 0.1 µM
- IC50 (JMJD3): 1 to 10 µM
- IC50 (JMJD2C): 0.1 to 1 µM

Compound: Cc1sccc1-c1ccc2c(c1)OCC[C@@H]2CNc1cnccc1C(=O)O [Example 36, 3-({[(4S)-7-(2-methylthiophen-3-yl)-3,4-dihydro-2H-1-benzopyran-4-yl]methyl}amino)pyridine-4-carboxylic acid]
- IC50 (JMJD3): 0.1 to 1 µM
- IC50 (JMJD2C): 1 to 10 µM

Compound: O=C(O)c1ccncc1NC[C@H]1CCOc2cc(-c3ccccc3Cl)ccc21 [Example 39, 3-({[(4S)-7-(2-chlorophenyl)-3,4-dihydro-2H-1-benzopyran-4-yl]methyl}amino)pyridine-4-carboxylic acid]
- IC50 (JMJD3): 0.1 to 1 µM
- IC50 (JMJD2C): 1 to 10 µM

Compound: O=C(O)c1ccncc1NC[C@@H]1CCOc2cc(-c3ccccc3O)ccc21 [Example 138, 3-({[(4R)-7-(2-hydroxyphenyl)-3,4-dihydro-2H-1-benzopyran-4-yl]methyl}amino)pyridine-4-carboxylic acid]
- IC50 (JMJD3): 1 to 10 µM
- IC50 (JMJD2C): 0.1 to 1 µM

Compound: 3-({[(1R)-6-[benzyl(methyl)amino]-1,2,3,4-tetrahydronaphthalen-1-yl]methyl}amino)pyridine-4-carboxylic acid [Example 130]
- IC50 (JMJD3): 1 to 10 µM
- IC50 (JMJD2C): 0.1 to 1 µM

Compound: O=C(O)c1ccncc1NC[C@H]1CCOc2cc(Sc3cccc(F)c3)ccc21 [Example 52, 3-({[(4S)-7-[(3-fluorophenyl)sulfanyl]-3,4-dihydro-2H-1-benzopyran-4-yl]methyl}amino)pyridine-4-carboxylic acid]
- IC50 (JMJD3): 0.1 to 1 µM
- IC50 (JMJD2C): 1 to 10 µM

Compound: Cc1cccc(-c2ccc3c(c2)OCC[C@@H]3CNc2cnccc2C(=O)O)c1 [Example 29, 3-({[(4S)-7-(3-methylphenyl)-3,4-dihydro-2H-1-benzopyran-4-yl]methyl}amino)pyridine-4-carboxylic acid]
- IC50 (JMJD3): 0.1 to 1 µM
- IC50 (JMJD2C): 1 to 10 µM

Compound: CN(c1ccccc1)c1ccc2c(c1)CCC[C@@H]2CNc1cnccc1C(=O)O [Example 1, 3-({[(1S)-6-[methyl(phenyl)amino]-1,2,3,4-tetrahydronaphthalen-1-yl]methyl}amino)pyridine-4-carboxylic acid]
- IC50 (JMJD3): 1 to 10 µM
- IC50 (JMJD2C): 1 to 10 µM

Compound: Cc1ccc(-c2ccc3c(c2)OCC[C@@H]3CNc2cnccc2C(=O)O)cc1 [Example 31, 3-({[(4S)-7-(4-methylphenyl)-3,4-dihydro-2H-1-benzopyran-4-yl]methyl}amino)pyridine-4-carboxylic acid]
- IC50 (JMJD3): 0.1 to 1 µM
- IC50 (JMJD2C): 1 to 10 µM
